Measured values from PubChem BioAssay (NCI).
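GI50 = concentration required for 50% inhibition of growth. TGI: concentration producing complete growth inhibition.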

Assays:
Assay in all cases: inhibition of tumour cell growth, NCI panel, 384-well format
A549 NSCLC = system: A549 NSCLC
NCI-H522 lung = system: NCI-H522 lung
A498 renal = system: A498 renal
MOLT-4 leukemia = system: MOLT-4 leukemia
MCF7 breast = system: MCF7 breast
SF-268 CNS = system: SF-268 CNS
KM12 colon = system: KM12 colon
UACC-62 melanoma = system: UACC-62 melanoma
HCC-2998 colon = system: HCC-2998 colon
DU-145 prostate = system: DU-145 prostate
COLO 205 colon = system: COLO 205 colon
HCT-116 colon = system: HCT-116 colon
PC-3 prostate = system: PC-3 prostate

`COCCOc1cc(F)c2c(Nc3ccc(NC(=O)Cn4cc(C(C)C)nn4)cc3)ncnc2c1` was tested, and the GI50 (A549 NSCLC) was 53.2 µM, the TGI (A549 NSCLC) was > 100 µM and the GI50 (NCI-H522 lung) was 18.1 µM. The TGI (NCI-H522 lung) was 92.3 µM, the GI50 (A498 renal) was 79.9 µM and the TGI (A498 renal) was > 100 µM. For the same compound, the GI50 (MOLT-4 leukemia) was 3.68 µM, the TGI (MOLT-4 leukemia) was 18.7 µM and the GI50 (MCF7 breast) was 21.9 µM. For the same compound, the TGI (MCF7 breast) was > 100 µM, the GI50 (SF-268 CNS) was 43.1 µM and the TGI (SF-268 CNS) was > 100 µM. The GI50 (KM12 colon) was 0.56 µM, the TGI (KM12 colon) was > 100 µM and the GI50 (UACC-62 melanoma) was 31.1 µM. For the same compound, the TGI (UACC-62 melanoma) was > 100 µM, the GI50 (HCC-2998 colon) was 29.3 µM and the TGI (HCC-2998 colon) was > 100 µM. For the same compound, the GI50 (DU-145 prostate) was 75 µM, the TGI (DU-145 prostate) was > 100 µM and the GI50 (COLO 205 colon) was 40.8 µM. For the same compound, the TGI (COLO 205 colon) was > 100 µM, the GI50 (HCT-116 colon) was 48.7 µM and the TGI (HCT-116 colon) was > 100 µM. For the same compound, the GI50 (PC-3 prostate) was 62.9 µM and the TGI (PC-3 prostate) was > 100 µM.
